Values quoted from earlier work in patent US8333981B2, “Antifungal treatment of nails” (Humco Holding Group, Inc., priority 2007, dated 2012).
Like-named read-outs stand apart in the source and are kept apart here.

Key:
[1] = human, in vivo
[2] = not told
[3] = system: fungi known to cause onychomycosis
[4] = system: onychomycosis of fingernails and toenails due to Trichophyton rubrum; conditions: after several months of use
[5] = system: chronic infections of the nails; conditions: human, in vivo
[6] = system: C. albicans (monilia), C. neoformans, B. dermatitidis, A. israelii, H. capsulatum, C. immitis, M. furfur (tinea versicolor) and bacteria
[7] = in vivo, po
[8] = in vitro
[9] = not told; remark: listed apart in the source

## CCCCCCCCO [n-octanol]
other
  permeability coefficient: 0.075 ×10⁻⁶ cm/s

## OC(Cn1cncn1)(Cn1cncn1)c1ccc(F)cc1F [fluconazole]
[1]
  patients who experienced adverse events: Sixteen

## Clc1ccc(COC(Cn2ccnc2)c2ccc(Cl)cc2Cl)c(Cl)c1 (centres unmarked) [Water-soluble miconazole, miconazole]
Dermatophyte isolates
  dermatophyte isolates being sensitive: 75%

## CC12CCC(CC1=O)C2(C)C (centres unmarked) [Camphor]
Toenail fungus
  anti-fungal activity: little or no detectable anti-fungal activity

## CCO [ethanol]
[2]
  average permeability coefficient: 5.8+/−3.1×10(−3) cm hr-1

## CC1CCC(C(C)C)C(O)C1 (centres unmarked) [Menthol]
[3]
  effect on fungi causing onychomycosis / toenail infection: specifically inhibits the growth

## Cc1ccc(C(C)C)c(O)c1 [Thymol]
[3]
  effect on fungi causing onychomycosis / toenail infection: effective

## Cc1cc(C2CCCCC2)n(O)c(=O)c1 [Ciclopirox, ciclopirox]
[4]
  cure rate: 14%

## COC1=CC(=O)C[C@@H](C)[C@]12Oc1c(Cl)c(OC)cc(OC)c1C2=O [Griseofulvin, griseofulvin]
[5]
  cure rates: poor cure rates
[6]
  activity against listed organisms: inactive

## CCC(C)n1ncn(-c2ccc(N3CCN(c4ccc(OCC5COC(Cn6cncn6)(c6ccc(Cl)cc6Cl)O5)cc4)CC3)cc2)c1=O (centres unmarked) [itraconazole]
[7]
  total observed incidence of adverse events possibly or directly drug-related: 18.2%

## O [water]
[2]
  average permeability coefficient: 16.5+/−5.9×10(−3) cm hr-1
Not told
  permeability coefficient: 4.58 ×10⁻⁶ cm/s

## O=C([O-])CS.[Na+] [Sodium Thioglycolate]
[8]
  increase in flux compared to the control: 3.8 fold

## NC(N)=O [Urea]
[9]
  drug permeability compared to control: significant increase

## Clc1ccccc1C(c1ccccc1)(c1ccccc1)n1ccnc1 [Clotrimazole]
Dermatophyte isolates
  dermatophyte isolates being sensitive: 30.55%

## Cc1cccc(N(C)C(=S)Oc2ccc3ccccc3c2)c1 [Tolnaftate]
Dermatophyte isolates
  dermatophyte isolates being sensitive: 47.22%
